Data from PubChem BioAssay (NCI).
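Method: 48-hour compound exposure of cells in 96-well plates, five concentrations, linear interpolation of endpoints. TGI: total growth inhibition.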

What was measured:
Test in all cases: inhibition of tumour cell growth, NCI panel, 48 h
HS 578T breast = tested on: HS 578T breast
NCI-H522 lung = tested on: NCI-H522 lung
UO-31 renal = tested on: UO-31 renal
PC-3 prostate = tested on: PC-3 prostate
T-47D breast = tested on: T-47D breast
COLO 205 colon = tested on: COLO 205 colon
MCF7 breast = tested on: MCF7 breast
ACHN renal = tested on: ACHN renal
OVCAR-5 ovarian = tested on: OVCAR-5 ovarian
HL-60(TB) leukemia = tested on: HL-60(TB) leukemia
HCT-116 colon = tested on: HCT-116 colon
HCC-2998 colon = tested on: HCC-2998 colon
RPMI-8226 leukemia = tested on: RPMI-8226 leukemia
786-0 renal = tested on: 786-0 renal
SN12C renal = tested on: SN12C renal
NCI-H226 lung = tested on: NCI-H226 lung
MALME-3M melanoma = tested on: MALME-3M melanoma
EKVX NSCLC = tested on: EKVX NSCLC
OVCAR-3 ovarian = tested on: OVCAR-3 ovarian
NCI/ADR-RES ovarian = tested on: NCI/ADR-RES ovarian
M14 melanoma = tested on: M14 melanoma
MOLT-4 leukemia = tested on: MOLT-4 leukemia
SNB-75 CNS = tested on: SNB-75 CNS
MDA-MB-231 breast = tested on: MDA-MB-231 breast
SK-MEL-2 melanoma = tested on: SK-MEL-2 melanoma
HOP-92 NSCLC = tested on: HOP-92 NSCLC
SK-MEL-5 melanoma = tested on: SK-MEL-5 melanoma
TK-10 renal = tested on: TK-10 renal
SR leukemia = tested on: SR leukemia
NCI-H23 lung = tested on: NCI-H23 lung
HCT-15 colon = tested on: HCT-15 colon
OVCAR-4 ovarian = tested on: OVCAR-4 ovarian
U251 CNS = tested on: U251 CNS
DU-145 prostate = tested on: DU-145 prostate
MDA-MB-435 = tested on: MDA-MB-435
SK-MEL-28 melanoma = tested on: SK-MEL-28 melanoma
HOP-62 NSCLC = tested on: HOP-62 NSCLC
BT-549 breast = tested on: BT-549 breast
SF-268 CNS = tested on: SF-268 CNS
LOX IMVI melanoma = tested on: LOX IMVI melanoma
IGROV1 ovarian = tested on: IGROV1 ovarian
HT29 colon = tested on: HT29 colon
CCRF-CEM leukemia = tested on: CCRF-CEM leukemia
SF-295 CNS = tested on: SF-295 CNS
MDA-N = tested on: MDA-N
UACC-62 melanoma = tested on: UACC-62 melanoma
A549 NSCLC = tested on: A549 NSCLC
SF-539 CNS = tested on: SF-539 CNS
SNB-19 CNS = tested on: SNB-19 CNS
KM12 colon = tested on: KM12 colon
SW-620 colon = tested on: SW-620 colon
SK-OV-3 ovarian = tested on: SK-OV-3 ovarian
OVCAR-8 ovarian = tested on: OVCAR-8 ovarian
K-562 leukemia = tested on: K-562 leukemia
CAKI-1 renal = tested on: CAKI-1 renal
UACC-257 melanoma = tested on: UACC-257 melanoma
HOP-18 NSCLC = tested on: HOP-18 NSCLC
DMS 114 small cell lung = tested on: DMS 114 small cell lung
M19-MEL melanoma = tested on: M19-MEL melanoma
KM20L2 colon = tested on: KM20L2 colon
RXF 393 renal = tested on: RXF 393 renal
SNB-78 CNS = tested on: SNB-78 CNS

Structure (SMILES): COC1CC(OC2C(C)OC(OC3C(C)OC(OC4C(C)OC(O[C@H]5CC[C@@]6(C)C(=CC[C@]7(O)[C@@H]6C[C@@H](O)[C@@]6(C)[C@]7(O)CC[C@@]6(O)C(C)=O)C5)CC4OC)CC3OC)CC2OC)OC(C)C1O (stereo not given in full)
- TGI (HS 578T breast): > 12.5 µM
- TGI (NCI-H522 lung): > 12.5 µM
- TGI (UO-31 renal): > 12.5 µM
- TGI (PC-3 prostate): > 12.5 µM
- TGI (T-47D breast): > 12.5 µM
- TGI (COLO 205 colon): > 12.5 µM
- TGI (MCF7 breast): > 12.5 µM
- TGI (ACHN renal): > 12.5 µM
- TGI (OVCAR-5 ovarian): > 12.5 µM
- TGI (HL-60(TB) leukemia): > 12.5 µM
- TGI (HCT-116 colon): > 12.5 µM
- TGI (HCC-2998 colon): > 12.5 µM
- TGI (RPMI-8226 leukemia): > 12.5 µM
- TGI (786-0 renal): > 12.5 µM
- TGI (SN12C renal): > 12.5 µM
- TGI (NCI-H226 lung): > 12.5 µM
- TGI (MALME-3M melanoma): > 12.5 µM
- TGI (EKVX NSCLC): > 12.5 µM
- TGI (OVCAR-3 ovarian): > 12.5 µM
- TGI (NCI/ADR-RES ovarian): > 12.5 µM
- TGI (M14 melanoma): > 12.5 µM
- TGI (MOLT-4 leukemia): > 12.5 µM
- TGI (SNB-75 CNS): > 12.5 µM
- TGI (MDA-MB-231 breast): > 12.5 µM
- TGI (SK-MEL-2 melanoma): > 12.5 µM
- TGI (HOP-92 NSCLC): > 12.5 µM
- TGI (SK-MEL-5 melanoma): > 12.5 µM
- TGI (TK-10 renal): > 12.5 µM
- TGI (SR leukemia): > 12.5 µM
- TGI (NCI-H23 lung): > 12.5 µM
- TGI (HCT-15 colon): > 12.5 µM
- TGI (OVCAR-4 ovarian): > 12.5 µM
- TGI (U251 CNS): > 12.5 µM
- TGI (DU-145 prostate): > 12.5 µM
- TGI (MDA-MB-435): > 12.5 µM
- TGI (SK-MEL-28 melanoma): > 12.5 µM
- TGI (HOP-62 NSCLC): > 12.5 µM
- TGI (BT-549 breast): > 12.5 µM
- TGI (SF-268 CNS): > 12.5 µM
- TGI (LOX IMVI melanoma): > 12.5 µM
- TGI (IGROV1 ovarian): > 12.5 µM
- TGI (HT29 colon): > 12.5 µM
- TGI (CCRF-CEM leukemia): > 12.5 µM
- TGI (SF-295 CNS): > 12.5 µM
- TGI (MDA-N): > 12.5 µM
- TGI (UACC-62 melanoma): > 12.5 µM
- TGI (A549 NSCLC): > 12.5 µM
- TGI (SF-539 CNS): > 12.5 µM
- TGI (SNB-19 CNS): > 12.5 µM
- TGI (KM12 colon): > 12.5 µM
- TGI (SW-620 colon): > 12.5 µM
- TGI (SK-OV-3 ovarian): > 12.5 µM
- TGI (OVCAR-8 ovarian): > 12.5 µM
- TGI (K-562 leukemia): > 12.5 µM
- TGI (CAKI-1 renal): > 12.5 µM
- TGI (UACC-257 melanoma): > 12.5 µM

Structure (SMILES): C/C(=N\NC(N)=S)c1ccc(C2CCCCC2)cc1
- TGI (UO-31 renal): 41.8 µM
- TGI (COLO 205 colon): 26.1 µM
- TGI (OVCAR-5 ovarian): 35.1 µM
- TGI (HCT-116 colon): 44.6 µM
- TGI (HCC-2998 colon): 42 µM
- TGI (RPMI-8226 leukemia): > 100 µM
- TGI (786-0 renal): 31.7 µM
- TGI (MALME-3M melanoma): 37.6 µM
- TGI (EKVX NSCLC): > 100 µM
- TGI (OVCAR-3 ovarian): 30.5 µM
- TGI (HOP-18 NSCLC): > 100 µM
- TGI (M14 melanoma): 22.7 µM
- TGI (MOLT-4 leukemia): 35.7 µM
- TGI (SK-MEL-2 melanoma): 32.8 µM
- TGI (TK-10 renal): 80.3 µM
- TGI (SR leukemia): > 100 µM
- TGI (NCI-H23 lung): 56.3 µM
- TGI (OVCAR-4 ovarian): 38.4 µM
- TGI (U251 CNS): 39.9 µM
- TGI (DMS 114 small cell lung): 29.9 µM
- TGI (M19-MEL melanoma): > 100 µM
- TGI (SK-MEL-28 melanoma): 33.7 µM
- TGI (HOP-62 NSCLC): 73.6 µM
- TGI (SF-268 CNS): > 100 µM
- TGI (KM20L2 colon): 30.1 µM
- TGI (IGROV1 ovarian): 62.1 µM
- TGI (HT29 colon): 34.5 µM
- TGI (SF-295 CNS): 21 µM
- TGI (UACC-62 melanoma): 32.2 µM
- TGI (RXF 393 renal): 27.6 µM
- TGI (SNB-78 CNS): 91.1 µM
- TGI (A549 NSCLC): > 100 µM
- TGI (SF-539 CNS): 38 µM
- TGI (SNB-19 CNS): > 100 µM
- TGI (KM12 colon): > 100 µM
- TGI (SK-OV-3 ovarian): 75.9 µM
- TGI (OVCAR-8 ovarian): 36.8 µM
- TGI (K-562 leukemia): 39.2 µM
- TGI (CAKI-1 renal): 64.6 µM
